Read-outs that look alike come from different tables or passages of the source.
What was measured:
Type in all cases: biochemical
CHK1(h) = target: T1, CHK1(h) (Homo sapiens, UniProt O14757); experiment: Kinase panel
T1 construct: purchased Millipore KinaseProfiler
T1 sequence (O14757 1-476): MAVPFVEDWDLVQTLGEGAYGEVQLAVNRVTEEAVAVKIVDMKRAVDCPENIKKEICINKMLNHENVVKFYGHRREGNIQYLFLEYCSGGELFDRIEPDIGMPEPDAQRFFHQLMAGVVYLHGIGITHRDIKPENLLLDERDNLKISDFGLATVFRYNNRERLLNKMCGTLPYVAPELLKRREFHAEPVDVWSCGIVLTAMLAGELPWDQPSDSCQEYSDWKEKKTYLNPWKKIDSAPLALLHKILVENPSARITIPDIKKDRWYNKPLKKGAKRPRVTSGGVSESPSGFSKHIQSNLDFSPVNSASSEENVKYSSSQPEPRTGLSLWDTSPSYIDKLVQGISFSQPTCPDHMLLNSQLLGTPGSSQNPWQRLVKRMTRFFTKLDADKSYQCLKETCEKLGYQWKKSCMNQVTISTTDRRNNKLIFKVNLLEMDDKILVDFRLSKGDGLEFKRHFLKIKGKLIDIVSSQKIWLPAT

PKCα(h) = target: T2, PKCα(h) (Homo sapiens, UniProt P17252); experiment: Kinase panel
T2 construct: purchased Millipore KinaseProfiler

GCK(h) = target: T3, GCK(h) (Homo sapiens, UniProt Q12851); experiment: Kinase panel
T3 construct: purchased Millipore KinaseProfiler
T3 sequence (Q12851 1-820): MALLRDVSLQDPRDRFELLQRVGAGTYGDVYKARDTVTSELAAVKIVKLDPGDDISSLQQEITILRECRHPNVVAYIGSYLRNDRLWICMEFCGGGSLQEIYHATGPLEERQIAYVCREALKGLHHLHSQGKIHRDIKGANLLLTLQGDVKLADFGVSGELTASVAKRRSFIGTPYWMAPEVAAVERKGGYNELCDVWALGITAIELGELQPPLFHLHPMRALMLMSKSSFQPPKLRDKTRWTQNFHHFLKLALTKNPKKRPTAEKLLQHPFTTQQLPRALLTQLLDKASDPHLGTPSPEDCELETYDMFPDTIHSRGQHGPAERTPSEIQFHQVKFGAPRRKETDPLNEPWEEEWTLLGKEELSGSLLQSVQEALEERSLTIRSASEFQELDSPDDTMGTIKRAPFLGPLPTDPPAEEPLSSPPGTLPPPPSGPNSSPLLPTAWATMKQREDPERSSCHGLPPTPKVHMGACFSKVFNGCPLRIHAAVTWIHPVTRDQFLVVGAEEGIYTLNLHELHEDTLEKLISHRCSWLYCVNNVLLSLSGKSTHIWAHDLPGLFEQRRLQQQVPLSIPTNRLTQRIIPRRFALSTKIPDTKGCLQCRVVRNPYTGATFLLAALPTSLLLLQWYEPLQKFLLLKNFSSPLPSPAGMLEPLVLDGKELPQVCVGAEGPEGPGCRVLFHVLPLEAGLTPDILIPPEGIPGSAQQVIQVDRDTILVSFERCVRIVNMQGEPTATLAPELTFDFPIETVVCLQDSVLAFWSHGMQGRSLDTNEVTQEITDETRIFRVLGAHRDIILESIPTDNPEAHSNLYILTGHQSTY

MLK1(h) = target: T4, MLK1(h) (Homo sapiens, UniProt P80192); experiment: Kinase panel
T4 construct: purchased Millipore KinaseProfiler
T4 sequence (P80192 whole entry): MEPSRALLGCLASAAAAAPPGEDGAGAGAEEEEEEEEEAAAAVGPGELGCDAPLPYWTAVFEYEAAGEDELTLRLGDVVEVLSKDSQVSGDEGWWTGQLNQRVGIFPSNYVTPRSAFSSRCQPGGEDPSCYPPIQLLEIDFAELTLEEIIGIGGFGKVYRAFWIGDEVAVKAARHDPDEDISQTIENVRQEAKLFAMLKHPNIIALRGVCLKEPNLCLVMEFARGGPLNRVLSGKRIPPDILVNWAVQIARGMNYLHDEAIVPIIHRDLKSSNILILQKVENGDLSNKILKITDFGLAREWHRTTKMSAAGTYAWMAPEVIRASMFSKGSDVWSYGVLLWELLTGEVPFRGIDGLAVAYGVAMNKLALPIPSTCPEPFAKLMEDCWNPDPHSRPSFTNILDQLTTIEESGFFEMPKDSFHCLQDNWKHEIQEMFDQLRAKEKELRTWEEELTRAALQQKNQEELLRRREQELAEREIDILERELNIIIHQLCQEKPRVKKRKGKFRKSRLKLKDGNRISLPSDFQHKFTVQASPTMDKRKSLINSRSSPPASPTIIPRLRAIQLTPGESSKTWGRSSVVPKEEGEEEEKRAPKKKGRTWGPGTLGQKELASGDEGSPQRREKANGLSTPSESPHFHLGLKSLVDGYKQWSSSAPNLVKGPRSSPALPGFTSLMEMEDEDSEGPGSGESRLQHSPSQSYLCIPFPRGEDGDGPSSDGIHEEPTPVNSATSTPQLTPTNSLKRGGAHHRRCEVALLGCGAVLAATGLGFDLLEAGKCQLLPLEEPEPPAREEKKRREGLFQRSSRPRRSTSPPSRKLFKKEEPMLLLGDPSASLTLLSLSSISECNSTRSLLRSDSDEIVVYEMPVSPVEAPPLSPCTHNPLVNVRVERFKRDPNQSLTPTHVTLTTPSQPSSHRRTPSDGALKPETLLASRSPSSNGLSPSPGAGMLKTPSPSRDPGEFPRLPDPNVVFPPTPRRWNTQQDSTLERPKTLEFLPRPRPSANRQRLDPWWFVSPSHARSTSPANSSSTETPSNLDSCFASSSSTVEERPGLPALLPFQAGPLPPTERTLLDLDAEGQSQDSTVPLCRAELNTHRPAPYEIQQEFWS

ACK1(h) = target: T5, ACK1(h) (Homo sapiens, UniProt Q07912); experiment: Kinase panel
T5 construct: purchased Millipore KinaseProfiler
T5 sequence (Q07912 whole entry): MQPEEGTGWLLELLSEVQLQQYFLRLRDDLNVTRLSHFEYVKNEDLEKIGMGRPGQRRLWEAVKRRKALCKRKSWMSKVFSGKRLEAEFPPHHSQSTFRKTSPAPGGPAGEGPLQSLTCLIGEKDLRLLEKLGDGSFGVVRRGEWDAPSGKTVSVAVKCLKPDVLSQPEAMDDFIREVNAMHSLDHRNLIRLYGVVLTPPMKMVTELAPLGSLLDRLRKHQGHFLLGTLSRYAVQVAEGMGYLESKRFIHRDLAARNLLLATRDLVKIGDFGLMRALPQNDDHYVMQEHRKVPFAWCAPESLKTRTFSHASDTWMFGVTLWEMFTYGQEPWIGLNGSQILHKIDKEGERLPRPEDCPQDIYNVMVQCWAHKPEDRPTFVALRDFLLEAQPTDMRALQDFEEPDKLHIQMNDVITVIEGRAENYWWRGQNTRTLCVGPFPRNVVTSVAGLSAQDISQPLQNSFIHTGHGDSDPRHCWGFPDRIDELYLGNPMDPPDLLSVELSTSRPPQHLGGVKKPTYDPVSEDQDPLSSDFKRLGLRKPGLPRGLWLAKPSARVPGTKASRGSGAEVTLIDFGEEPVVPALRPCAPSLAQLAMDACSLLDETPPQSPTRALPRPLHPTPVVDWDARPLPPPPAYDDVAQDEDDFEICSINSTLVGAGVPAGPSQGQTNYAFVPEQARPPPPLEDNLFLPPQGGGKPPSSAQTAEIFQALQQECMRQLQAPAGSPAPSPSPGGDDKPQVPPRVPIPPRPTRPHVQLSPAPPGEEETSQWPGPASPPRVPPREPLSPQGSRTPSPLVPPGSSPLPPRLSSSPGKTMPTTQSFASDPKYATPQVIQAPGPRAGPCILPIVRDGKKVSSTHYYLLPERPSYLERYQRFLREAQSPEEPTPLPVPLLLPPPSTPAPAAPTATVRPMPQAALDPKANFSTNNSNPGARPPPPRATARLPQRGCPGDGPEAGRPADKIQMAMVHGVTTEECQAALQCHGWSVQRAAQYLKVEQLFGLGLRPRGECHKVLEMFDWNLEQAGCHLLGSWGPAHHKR

Abl (H396P) (h) = target: T6, Abl (H396P) (h) (Homo sapiens, UniProt P00519, H396P); experiment: Kinase panel
T6 construct: purchased Millipore KinaseProfiler

NEK6(h) = target: T7, NEK6(h) (Homo sapiens, UniProt Q9HC98); experiment: Kinase panel
T7 construct: purchased Millipore KinaseProfiler
T7 sequence (Q9HC98 whole entry): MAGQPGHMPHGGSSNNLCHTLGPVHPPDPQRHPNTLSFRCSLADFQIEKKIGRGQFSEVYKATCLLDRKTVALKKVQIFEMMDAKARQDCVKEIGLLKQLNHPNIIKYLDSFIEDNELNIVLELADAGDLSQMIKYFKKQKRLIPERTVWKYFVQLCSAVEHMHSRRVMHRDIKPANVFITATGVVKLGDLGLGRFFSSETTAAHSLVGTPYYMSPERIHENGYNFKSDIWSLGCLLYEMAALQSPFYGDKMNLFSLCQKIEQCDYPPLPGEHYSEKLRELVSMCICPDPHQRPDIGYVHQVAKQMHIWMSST

PKCμ(h) = target: T8, PKCμ(h) (Homo sapiens, UniProt Q15139); experiment: Kinase panel
T8 construct: purchased Millipore KinaseProfiler
T8 sequence (Q15139 1-912): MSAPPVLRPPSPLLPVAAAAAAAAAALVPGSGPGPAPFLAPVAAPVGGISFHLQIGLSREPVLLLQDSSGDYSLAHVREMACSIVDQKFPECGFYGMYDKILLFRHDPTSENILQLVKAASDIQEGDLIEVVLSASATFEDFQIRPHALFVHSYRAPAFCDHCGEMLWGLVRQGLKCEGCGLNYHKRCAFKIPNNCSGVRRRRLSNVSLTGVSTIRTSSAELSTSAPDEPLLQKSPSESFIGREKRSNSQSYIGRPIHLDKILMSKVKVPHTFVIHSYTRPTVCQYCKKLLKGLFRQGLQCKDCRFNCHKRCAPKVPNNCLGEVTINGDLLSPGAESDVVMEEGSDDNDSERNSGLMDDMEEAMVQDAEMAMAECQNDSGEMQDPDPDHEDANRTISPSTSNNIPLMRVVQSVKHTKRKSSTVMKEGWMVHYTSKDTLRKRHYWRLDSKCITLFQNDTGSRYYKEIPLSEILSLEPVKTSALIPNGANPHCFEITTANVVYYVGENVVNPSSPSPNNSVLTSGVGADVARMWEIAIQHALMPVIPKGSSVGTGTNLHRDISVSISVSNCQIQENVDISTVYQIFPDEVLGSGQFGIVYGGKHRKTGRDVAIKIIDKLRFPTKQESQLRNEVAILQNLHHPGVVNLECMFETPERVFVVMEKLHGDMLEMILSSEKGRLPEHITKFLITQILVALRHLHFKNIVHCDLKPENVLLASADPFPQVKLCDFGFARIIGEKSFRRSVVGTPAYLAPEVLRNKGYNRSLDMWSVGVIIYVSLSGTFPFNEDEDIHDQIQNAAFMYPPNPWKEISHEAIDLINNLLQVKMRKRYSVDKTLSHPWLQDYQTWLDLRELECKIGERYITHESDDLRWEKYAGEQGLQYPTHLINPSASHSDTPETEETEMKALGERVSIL

DAPK2(h) = target: T9, DAPK2(h) (Homo sapiens, UniProt Q9UIK4); experiment: Kinase panel
T9 construct: purchased Millipore KinaseProfiler
T9 sequence (Q9UIK4 whole entry): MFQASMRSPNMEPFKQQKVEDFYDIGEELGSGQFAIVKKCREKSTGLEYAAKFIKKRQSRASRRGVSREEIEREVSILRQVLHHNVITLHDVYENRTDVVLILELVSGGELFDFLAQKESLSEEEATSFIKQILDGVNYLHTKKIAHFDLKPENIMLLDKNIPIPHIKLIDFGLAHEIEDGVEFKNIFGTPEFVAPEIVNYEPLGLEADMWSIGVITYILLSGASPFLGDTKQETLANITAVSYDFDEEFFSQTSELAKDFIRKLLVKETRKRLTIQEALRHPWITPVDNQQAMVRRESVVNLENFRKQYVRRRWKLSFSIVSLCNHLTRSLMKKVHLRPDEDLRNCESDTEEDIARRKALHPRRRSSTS

PKCδ(h) = target: T10, PKCδ(h) (Homo sapiens, UniProt Q05655); experiment: Kinase panel
T10 construct: purchased Millipore KinaseProfiler
T10 sequence (Q05655 whole entry): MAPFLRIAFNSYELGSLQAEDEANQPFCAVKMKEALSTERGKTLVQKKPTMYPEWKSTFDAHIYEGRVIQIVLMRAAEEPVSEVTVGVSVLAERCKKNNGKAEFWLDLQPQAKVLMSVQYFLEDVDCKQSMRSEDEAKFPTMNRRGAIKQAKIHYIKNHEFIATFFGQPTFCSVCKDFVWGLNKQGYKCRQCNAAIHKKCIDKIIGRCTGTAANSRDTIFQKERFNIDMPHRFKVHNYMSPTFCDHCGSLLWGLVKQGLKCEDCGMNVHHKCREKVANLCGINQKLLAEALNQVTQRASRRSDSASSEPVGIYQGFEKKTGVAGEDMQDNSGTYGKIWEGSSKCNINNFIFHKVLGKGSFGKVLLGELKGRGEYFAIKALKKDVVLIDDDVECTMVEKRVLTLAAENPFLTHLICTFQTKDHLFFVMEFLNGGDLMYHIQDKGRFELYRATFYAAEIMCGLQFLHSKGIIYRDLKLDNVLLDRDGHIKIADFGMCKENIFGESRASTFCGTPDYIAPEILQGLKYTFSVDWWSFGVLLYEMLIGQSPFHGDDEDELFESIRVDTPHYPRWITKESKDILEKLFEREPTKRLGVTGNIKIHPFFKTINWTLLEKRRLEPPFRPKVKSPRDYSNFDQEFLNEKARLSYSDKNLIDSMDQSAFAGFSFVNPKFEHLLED

PKCμ = PKCμ (Homo sapiens, UniProt Q15139); experiment: Kinase IC50 assay
Syk(h) = target: T11, Syk(h) (Homo sapiens, UniProt P43405); experiment: Kinase panel
T11 construct: purchased Millipore KinaseProfiler

Cn1ncc(Cl)c1-c1cc(C(=O)N[C@H](CN)Cc2cccc(F)c2)sc1Cl [GSK2110183]
inhibition at 0.5 µM (CHK1(h)): 13%
inhibition at 10 µM (CHK1(h)): 34%
inhibition at 0.5 µM (PKCα(h)): 2%
inhibition at 10 µM (PKCα(h)): 40%
inhibition at 0.5 µM (GCK(h)): -1%
inhibition at 10 µM (GCK(h)): 10%
inhibition at 0.5 µM (MLK1(h)): -8%
inhibition at 10 µM (MLK1(h)): 11%
inhibition at 0.5 µM (ACK1(h)): 1%
inhibition at 10 µM (ACK1(h)): 8%
inhibition at 0.5 µM (Abl (H396P) (h)): -2%
inhibition at 10 µM (Abl (H396P) (h)): 10%
inhibition at 0.5 µM (NEK6(h)): -25%
inhibition at 10 µM (NEK6(h)): -11%
inhibition at 0.5 µM (PKCμ(h)): 27%
inhibition at 10 µM (PKCμ(h)): 81%
inhibition at 0.5 µM (DAPK2(h)): -1%
inhibition at 10 µM (DAPK2(h)): 37%
inhibition at 0.5 µM (PKCδ(h)): 48%
inhibition at 10 µM (PKCδ(h)): 92%
IC50 (PKCμ): > 1000 nM
inhibition at 0.5 µM (Syk(h)): 3%
inhibition at 10 µM (Syk(h)): 39%

Cn1ncc(Cl)c1-c1cc(C(=O)N[C@H](CN)Cc2ccc(F)c(F)c2)oc1Cl [GSK2141795]
inhibition at 0.5 µM (CHK1(h); 0.5 µM, read-out: % Inhibition): -9%
inhibition at 10 µM (CHK1(h); 10 µM, read-out: % Inhibition): 21%
inhibition at 0.5 µM (PKCα(h); 0.5 µM, read-out: % Inhibition): 10%
inhibition at 10 µM (PKCα(h); 10 µM, read-out: % Inhibition): 62%
inhibition at 0.5 µM (GCK(h); 0.5 µM, read-out: % Inhibition): -13%
inhibition at 10 µM (GCK(h); 10 µM, read-out: % Inhibition): 7%
inhibition at 0.5 µM (MLK1(h); 0.5 µM, read-out: % Inhibition): -14%
inhibition at 10 µM (MLK1(h); 10 µM, read-out: % Inhibition): 45%
inhibition at 0.5 µM (ACK1(h); 0.5 µM, read-out: % Inhibition): -2%
inhibition at 10 µM (ACK1(h); 10 µM, read-out: % Inhibition): 0%
inhibition at 0.5 µM (Abl (H396P) (h); 0.5 µM, read-out: % Inhibition): 4%
inhibition at 10 µM (Abl (H396P) (h); 10 µM, read-out: % Inhibition): 1%
inhibition at 0.5 µM (NEK6(h); 0.5 µM, read-out: % Inhibition): -17%
inhibition at 10 µM (NEK6(h); 10 µM, read-out: % Inhibition): -22%
inhibition at 0.5 µM (PKCμ(h); 0.5 µM, read-out: % Inhibition): 37%
inhibition at 10 µM (PKCμ(h); 10 µM, read-out: % Inhibition): 91%
inhibition at 0.5 µM (DAPK2(h); 0.5 µM, read-out: % Inhibition): -10%
inhibition at 10 µM (DAPK2(h); 10 µM, read-out: % Inhibition): 58%
inhibition at 0.5 µM (PKCδ(h); 0.5 µM, read-out: % Inhibition): 67%
inhibition at 10 µM (PKCδ(h); 10 µM, read-out: % Inhibition): 85%
IC50 (PKCμ): 690 nM
inhibition at 0.5 µM (Syk(h); 0.5 µM, read-out: % Inhibition): -18%
inhibition at 10 µM (Syk(h); 10 µM, read-out: % Inhibition): 35%

From publication PMC4076210, “Discovery of Novel AKT Inhibitors with Enhanced Anti-Tumor Effects in Combination with the MEK Inhibitor” (PLoS ONE, 2014)
